“And” between values parts separate entries of the source, which are not always exact repeats. Identical values can stand only once. Toxic doses and inconclusive results are not listed. Rule for the calls: active = survival T/C of 150% or more; inactive = T/C below 125% in these data. Numbered stars: 1 amine (or outer) side, 2 acyl side, 3 side chain; on linkers, the order of the positions; unused ones are H or OH. Bridge positions count the residues as written; N and C are the ends. Square brackets hold non-standard residues; d marks the D form. Peptide text beside a SMILES is read from it. I, II: the chains in the order shown. * marks the point of attachment. ξ: configuration not given here. Quinaldoyl(3-OH,6-OMe) = COc1ccc2nc(C(=O)*)c(O)cc2c1; X8 = CC(=O)OC1CC=NN([*:1])C1C(=O)[*:2]; ξNMeVal(3-OH) = CNC(C(=O)O)C(C)(C)O; X7 = O=C(C1C(O)CC=NN1[*:1])[*:2]; Sar = CNCC(=O)O
Tested on: P388 leukemia ip, CD2F1 mice, survival T/C
Test: NCI In Vivo Anticancer Drug Screen. Data for tumor model P388 Leukemia (intraperitoneal) in CD2F1 (CDF1) mice
Conditions: endpoint: median survival time, higher = longer survival
Outline: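 Mice carrying the transplanted tumor received test compound or vehicle. Survival was recorded in each group, and the value is the treated-group measurement divided by that of the vehicle-treated control group.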

[1] = dose: 100.0 mg/kg/injection, schedule: Q01DX009 (ip), vehicle: saline with Tween-80
[2] = dose: 200.0 mg/kg/injection, schedule: Q01DX009 (ip), vehicle: saline with Tween-80
[3] = dose: 400.0 mg/kg/injection, schedule: Q01DX009 (ip), vehicle: saline with Tween-80
[4] = dose: 50.0 mg/kg/injection, schedule: Q01DX009 (ip), vehicle: saline with Tween-80
[5] = dose: 50.0 mg/kg/injection, schedule: Q01DX005 (ip), vehicle: saline with Tween-80
[6] = dose: 100.0 mg/kg/injection, schedule: Q01DX005 (ip), vehicle: saline with Tween-80
[7] = dose: 200.0 mg/kg/injection, schedule: Q01DX005 (ip), vehicle: saline with Tween-80

Measured: T/C

Cc1ccc(C2(C(=O)O)CC2)cc1
inactive: [1] 100 % of control | [2] 100 % of control | [3] 90 % of control

CC1C=CC(C)N(C(N)=O)N1C(N)=O (stereo unspecified)
inactive: dose: 100.0 mg/kg/injection, schedule: Q01DX001 (ip), vehicle: saline with Tween-80 98 % of control | dose: 200.0 mg/kg/injection, schedule: Q01DX001 (ip), vehicle: saline with Tween-80 100 % of control | dose: 400.0 mg/kg/injection, schedule: Q01DX001 (ip), vehicle: saline with Tween-80 91 % of control

COC(=O)C(CC=C(C)C)C(C)=O (stereo unspecified)
inactive: dose: 50.0 mg/kg/injection, schedule: Q01DX005 (ip), vehicle: saline 101 % of control | dose: 100.0 mg/kg/injection, schedule: Q01DX005 (ip), vehicle: saline 101 % of control | dose: 200.0 mg/kg/injection, schedule: Q01DX005 (ip), vehicle: saline 105 % of control

N#C/C(=C1/NC(=O)c2ccccc21)c1nc2ccccc2s1
inactive: [4] 89 % of control | [1] 90 % of control | [2] 96 % of control

Cc1cc(C)c(C#N)c(SCC(=O)c2sc3c(C#N)c(C)cc(C)[n+]3c2[O-])n1
inactive: [5] 90 % of control | [6] 90 % of control | [7] 95 % of control

CC1=C(C(=O)CC(=O)C(=O)Nc2ccc(Cl)cc2Cl)Sc2ccccc2N1
inactive: dose: 60.0 mg/kg/injection, schedule: Q01DX005 (ip), vehicle: saline with Tween-80 100 % of control | dose: 120.0 mg/kg/injection, schedule: Q01DX005 (ip), vehicle: saline with Tween-80 100 % of control

NCCS(=O)(=O)O
inactive: dose: 100.0 mg/kg/injection, schedule: Q01DX009 (ip), vehicle: water 90 % of control | dose: 200.0 mg/kg/injection, schedule: Q01DX009 (ip), vehicle: water 86 % of control | dose: 400.0 mg/kg/injection, schedule: Q01DX009 (ip), vehicle: water 86 % of control | dose: 800.0 mg/kg/injection, schedule: Q01DX009 (ip), vehicle: water 90 % of control

O=C(NN1C(=O)C2=Cc3ccccc3OC2=NC1c1ccccc1O)c1ccncc1 (stereo unspecified)
inactive: dose: 100.0 mg/kg/injection, schedule: Q01DX001 (ip), vehicle: saline 96 % of control | dose: 200.0 mg/kg/injection, schedule: Q01DX001 (ip), vehicle: saline 98 % of control | dose: 400.0 mg/kg/injection, schedule: Q01DX001 (ip), vehicle: saline 94 % of control

CCCCCCN(CCCCCC)CC(O)c1ccc2c3c(cccc13)CC2 (stereo unspecified)
inactive: dose: 50.0 mg/kg/injection, schedule: Q01DX009 (ip), vehicle: Klucel (hydroxypropylcellulose) (HPC) 106 % of control | dose: 100.0 mg/kg/injection, schedule: Q01DX009 (ip), vehicle: Klucel (hydroxypropylcellulose) (HPC) 102 % of control | dose: 200.0 mg/kg/injection, schedule: Q01DX009 (ip), vehicle: Klucel (hydroxypropylcellulose) (HPC) 100 % of control

Cn1c(=O)cc(NC2OC(CO)C(O)C(O)C2O)[nH]c1=O (stereo unspecified)
inactive: dose: 60.0 mg/kg/injection, schedule: Q01DX005 (ip), vehicle: saline 97 % of control | dose: 120.0 mg/kg/injection, schedule: Q01DX005 (ip), vehicle: saline 97 % of control | dose: 240.0 mg/kg/injection, schedule: Q01DX005 (ip), vehicle: saline 99 % of control

CC(=C\C=N\N(C)c1ccccc1)/C=C1\Cc2ccccc2C1=O
inactive: dose: 100.0 mg/kg/injection, schedule: Q04DX003 (ip), vehicle: Klucel (hydroxypropylcellulose) (HPC) 99 % of control | dose: 200.0 mg/kg/injection, schedule: Q04DX003 (ip), vehicle: Klucel (hydroxypropylcellulose) (HPC) 97 % of control | dose: 400.0 mg/kg/injection, schedule: Q04DX003 (ip), vehicle: Klucel (hydroxypropylcellulose) (HPC) 96 % of control

COc1ccc2nc(C(=O)NC3COC(=O)C(C(C)(C)O)N(C)C(=O)CN(C)C(=O)CNC(=O)C4C(OC(C)=O)CC=NN4C(=O)C(NC(=O)c4nc5ccc(OC)cc5cc4O)COC(=O)C(C(C)(C)O)N(C)C(=O)CN(C)C(=O)CNC(=O)C4C(O)CC=NN4C3=O)c(O)cc2c1 (stereo unspecified) (I: {Quinaldoyl(3-OH,6-OMe)}-S[X7]G[Sar][ξNMeVal(3-OH)] / II: {Quinaldoyl(3-OH,6-OMe)}-S[X8]G[Sar][ξNMeVal(3-OH)]; ester I:1-II:C, I:C-II:1; configuration not given here)
inactive: dose: 6.25 micrograms/kg/injection, schedule: Q01DX005 (ip), vehicle: DMSO 108 % of control | dose: 12.5 micrograms/kg/injection, schedule: Q01DX005 (ip), vehicle: DMSO 112 % of control | dose: 25.0 micrograms/kg/injection, schedule: Q01DX005 (ip), vehicle: DMSO 118 % of control | dose: 50.0 micrograms/kg/injection, schedule: Q01DX005 (ip), vehicle: DMSO 119 % of control | dose: 100.0 micrograms/kg/injection, schedule: Q01DX005 (ip), vehicle: DMSO 123 % of control

O=[N+]([O-])c1ccc(/C=C/S(=O)(=O)Cc2ccccc2)cc1
inactive: [5] 105 % of control | [6] 100 % of control | [7] 96 % of control

C[C@]12CC[C@H]3[C@@H](CCC4=CC(=O)CC[C@@H]43)[C@@H]1CC[C@@H]2OC(=O)N(CCCl)N=O
inactive: dose: 12.5 mg/kg/injection, schedule: Q01DX009 (ip), vehicle: other 123 % of control | dose: 15.0 mg/kg/injection, schedule: Q01DX009 (ip), vehicle: saline 96 % of control | dose: 15.0 mg/kg/injection, schedule: Q04DX003 (ip), vehicle: saline 100 % of control and 107 % of control | dose: 25.0 mg/kg/injection, schedule: Q01DX005 (ip), vehicle: other 104 % of control | dose: 25.0 mg/kg/injection, schedule: Q01DX009 (ip), vehicle: other 118 % of control | dose: 30.0 mg/kg/injection, schedule: Q01DX009 (ip), vehicle: saline 86 % of control | dose: 30.0 mg/kg/injection, schedule: Q04DX003 (ip), vehicle: saline 101 % of control and 106 % of control and 112 % of control | dose: 50.0 mg/kg/injection, schedule: Q01DX005 (ip), vehicle: other 96 % of control | dose: 60.0 mg/kg/injection, schedule: Q01DX009 (ip), vehicle: saline 91 % of control | dose: 60.0 mg/kg/injection, schedule: Q04DX003 (ip), vehicle: saline 98 % of control and 101 % of control and 120 % of control | dose: 120.0 mg/kg/injection, schedule: Q01DX009 (ip), vehicle: saline with Tween-80 86 % of control | dose: 120.0 mg/kg/injection, schedule: Q01DX009 (ip), vehicle: saline 92 % of control | dose: 120.0 mg/kg/injection, schedule: Q04DX003 (ip), vehicle: saline 102 % of control and 106 % of control

C=C(C)[C@@H](/C=C/[C@@H](C)[C@H]1CC[C@H]2C3=CC[C@H]4C[C@@H](O)CC[C@]4(C)[C@H]3CC[C@]12C)CC
inactive: [4] 90 % of control | dose: 50.0 mg/kg/injection, schedule: Q04DX003 (ip), vehicle: saline with Tween-80 95 % of control | [1] 90 % of control | dose: 100.0 mg/kg/injection, schedule: Q04DX003 (ip), vehicle: saline with Tween-80 90 % of control | [2] 100 % of control | dose: 200.0 mg/kg/injection, schedule: Q04DX003 (ip), vehicle: saline with Tween-80 95 % of control

CC1OC(=O)c2ccccc2S1=O (stereo unspecified)
inactive: [1] 95 % of control | [2] 90 % of control | [3] 95 % of control

C=C1C(=O)OC2CC1C(OC(C)=O)CC1(C)OC1CCC1(C)OC1CCC2(C)O (stereo unspecified)
inactive: dose: 6.26 mg/kg/injection, schedule: Q01DX009 (ip), vehicle: Klucel (hydroxypropylcellulose) (HPC) 119 % of control | dose: 12.5 mg/kg/injection, schedule: Q01DX009 (ip), vehicle: Klucel (hydroxypropylcellulose) (HPC) 117 % of control | dose: 25.0 mg/kg/injection, schedule: Q01DX009 (ip), vehicle: Klucel (hydroxypropylcellulose) (HPC) 123 % of control

— PubChem BioAssay AID330 (DTP/NCI, 2004)
